Measurements from patent EP0754455A1, “PHARMACEUTICAL COMPOSITIONS BASED ON AMINOMETHYLINDOLES AND THEIR THERAPEUTICAL APPLICATION AS NEUROPROTECTORS IN PARKINSON AND ALZHEIMER DISEASES” (CONSEJO SUPERIOR INVESTIGACIONES CIENTIFICAS (CSIC), priority 1995, dated 1996).

Columns and labels:
MAO-A = target: T1, MAO-A (Mus musculus, UniProt Q64133); experiment: Ex vivo inhibition of brain MAO-A after i.p. administration; type: in vivo, C57/BL mice; conditions: mouse brain homogenate 2 hours after i.p., l-deprenyl 10 mg/Kg, tested compound 4 mg/Kg
T1 construct: the brains homogenised in potassium phosphate buffer 50 mM, pH 7.2; from tissue; host or cells: C57/BL mouse brain homogenate
T1 sequence (Q64133 1-526): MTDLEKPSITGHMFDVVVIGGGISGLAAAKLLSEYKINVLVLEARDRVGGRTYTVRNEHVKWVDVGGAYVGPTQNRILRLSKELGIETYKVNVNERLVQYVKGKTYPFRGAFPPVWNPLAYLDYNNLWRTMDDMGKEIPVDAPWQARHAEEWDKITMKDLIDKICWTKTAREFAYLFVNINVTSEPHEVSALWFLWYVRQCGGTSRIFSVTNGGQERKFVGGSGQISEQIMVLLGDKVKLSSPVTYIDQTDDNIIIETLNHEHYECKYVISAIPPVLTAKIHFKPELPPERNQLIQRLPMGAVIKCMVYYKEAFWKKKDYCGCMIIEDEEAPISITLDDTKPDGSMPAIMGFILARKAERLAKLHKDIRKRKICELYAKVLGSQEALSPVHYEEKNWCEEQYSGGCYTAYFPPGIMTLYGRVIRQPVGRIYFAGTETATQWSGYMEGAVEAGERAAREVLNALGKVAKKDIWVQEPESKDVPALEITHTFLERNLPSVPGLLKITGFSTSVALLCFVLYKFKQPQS
Procedure: (§1) The pharmacological assays were carried out on C57/BL mice. These animals are sensitive to the induction of the symptomatology of Parkinson's disease through the action of MPTP.
(§2) The animals were sacrificed by decapitation after 2 hours and the brains homogenised in potassium phosphate buffer 50 mM, pH 7.2. Determinations were made of the MAO-A and MAO-B activity in each case using radiometric methods.

dopamine uptake carrier = target: T2, dopamine uptake carrier (Rattus norvegicus, UniProt P23977); experiment: Dopamine re-uptake in purified synaptosomes of rat brain striatal tissue; type: biochemical, Sprague-Dawley rats; conditions: substrate concentration 0.1 µM
T2 construct: purified synaptosomes of brain striatal tissue from Sprague-Dawley rats; from tissue; host or cells: Sprague-Dawley rat brain striatum, purified synaptosomes
Procedure: Kinetic studies of dopamine re-uptake were carried out in purified synaptosomes of brain striatal tissue from Sprague-Dawley rats.

MAO-B [1] = target: T3, MAO-B (Mus musculus, UniProt Q8BW75); experiment: Ex vivo inhibition of brain MAO-B after i.p. administration
T3 sequence (Q8BW75 1-520): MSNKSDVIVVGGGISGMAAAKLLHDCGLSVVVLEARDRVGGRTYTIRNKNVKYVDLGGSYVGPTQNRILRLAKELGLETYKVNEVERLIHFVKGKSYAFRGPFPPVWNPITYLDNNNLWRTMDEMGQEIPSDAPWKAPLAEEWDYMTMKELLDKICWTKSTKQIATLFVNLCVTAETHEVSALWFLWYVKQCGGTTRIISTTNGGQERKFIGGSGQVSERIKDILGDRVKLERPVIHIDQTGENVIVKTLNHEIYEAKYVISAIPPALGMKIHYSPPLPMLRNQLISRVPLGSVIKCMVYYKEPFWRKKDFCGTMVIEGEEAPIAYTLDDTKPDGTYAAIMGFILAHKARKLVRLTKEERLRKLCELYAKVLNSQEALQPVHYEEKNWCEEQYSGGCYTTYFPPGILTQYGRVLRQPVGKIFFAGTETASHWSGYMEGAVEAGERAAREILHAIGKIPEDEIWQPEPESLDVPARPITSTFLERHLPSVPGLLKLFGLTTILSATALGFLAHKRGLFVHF
Procedure: as §1, §2

MPTP neurotoxin = experiment: Protection against the neurotoxicity of MPTP (striatal DA and DOPAC levels); type: in vivo, mice of the C57/BL species; conditions: striate, FA-73 3 mg/Kg i.p. 2 h before MPTP HCl 30 mg/Kg i.p., MPTP repeated on day 2, 24 h after last MPTP
Procedure: Two hours later they were administered MPTP HCl (30 mg/Kg i.p.) and this dose was repeated on the second day. Twenty four hours after the last injection of MPTP the animals were sacrificed. The brains were dissected and determinations made of the dopamine (DA) and 3,4-dihydroxyphenylacetic acid (DOPAC) levels in the striate.

MAO-B [2] = target: T4, MAO-B (Rattus norvegicus, UniProt P19643); experiment: Kinetic parameters of suicide-type inhibition, MAO-B (selectivity K1 MAO-A / K1 MAO-B); type: biochemical, Sprague-Dawley rat; conditions: selectivity for MAO-B
T4 construct: from tissue; host or cells: Sprague-Dawley rat liver, mitochondrial fraction
T4 sequence (P19643 1-520): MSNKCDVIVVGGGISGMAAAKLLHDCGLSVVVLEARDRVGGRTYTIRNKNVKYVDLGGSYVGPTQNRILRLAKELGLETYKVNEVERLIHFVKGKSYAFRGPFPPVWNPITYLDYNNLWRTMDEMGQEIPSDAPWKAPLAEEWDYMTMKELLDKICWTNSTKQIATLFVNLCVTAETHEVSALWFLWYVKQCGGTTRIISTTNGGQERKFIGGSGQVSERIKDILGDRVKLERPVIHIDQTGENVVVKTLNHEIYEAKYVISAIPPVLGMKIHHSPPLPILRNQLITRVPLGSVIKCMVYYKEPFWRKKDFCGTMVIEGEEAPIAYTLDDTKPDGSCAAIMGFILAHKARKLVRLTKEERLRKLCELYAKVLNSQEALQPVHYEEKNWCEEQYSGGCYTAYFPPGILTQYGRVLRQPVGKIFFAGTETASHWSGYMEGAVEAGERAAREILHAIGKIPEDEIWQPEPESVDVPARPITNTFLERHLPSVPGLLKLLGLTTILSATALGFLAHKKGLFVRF
From the text: K1 is the affinity constant of the first stage of the reaction and K1 MAO-A / K1 MAO-B the expression of the selectivity.
K^1cat is the velocity constant for the formation of the covalent irreversible complex during the second stage of the process. To compare the values of these constants towards the two forms of MAO, we express the inhibition efficacy as the ratio K^1cat/K1. The value of these constants (see Tables 2 and 3), is the result of three different experiments, with their corresponding SEM.

T2 sequence (P23977 whole entry): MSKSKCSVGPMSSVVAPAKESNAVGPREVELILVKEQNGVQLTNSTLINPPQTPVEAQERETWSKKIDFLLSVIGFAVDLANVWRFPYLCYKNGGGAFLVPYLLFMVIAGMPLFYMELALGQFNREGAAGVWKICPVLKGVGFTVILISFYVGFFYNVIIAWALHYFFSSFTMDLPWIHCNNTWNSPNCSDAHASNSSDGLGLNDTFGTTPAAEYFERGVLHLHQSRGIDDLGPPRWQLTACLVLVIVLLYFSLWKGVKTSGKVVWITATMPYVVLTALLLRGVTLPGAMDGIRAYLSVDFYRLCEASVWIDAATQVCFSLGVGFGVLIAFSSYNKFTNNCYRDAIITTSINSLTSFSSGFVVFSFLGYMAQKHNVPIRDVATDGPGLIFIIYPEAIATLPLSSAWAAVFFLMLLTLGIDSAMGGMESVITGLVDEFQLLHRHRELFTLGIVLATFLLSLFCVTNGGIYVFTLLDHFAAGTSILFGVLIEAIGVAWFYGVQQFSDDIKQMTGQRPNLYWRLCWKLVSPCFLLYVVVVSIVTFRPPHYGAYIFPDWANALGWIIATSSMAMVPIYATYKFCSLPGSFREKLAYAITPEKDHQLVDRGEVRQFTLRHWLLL

With `C#CCNCc1cc2cc(OCc3ccccc3)ccc2[nH]1` [FA-73] the remaining activity at 4 mg/kg (MAO-A; ip, control = 100%) was 96.2%, the “MAO-A ACTIVITY” value (MAO-A; control 485) was 467 and the IC50 (dopamine uptake carrier) was 150 µM. For the same compound, the “crossing of the hematoencephalic barrier” value (MAO-B [1]; concluded from brain MAO-B inhibition after 4 mg/Kg i.p. in C57/BL mice) was “crosses the hematoencephalic barrier”, the “MAO-B ACTIVITY” value (MAO-B [1]; mouse brain homogenate 2 hours after i.p., l-deprenyl 10 mg/Kg, tested compound 4 mg/Kg, control 303) was 16 and the DOPAC (MPTP neurotoxin; control 0.98, MPTP alone 0.54) was 0.93 ± 0.023 µg/g dry tissue. The “Dopamine (DA)” value (MPTP neurotoxin; control 10.85, MPTP alone 3.13) was 10.48 ± 0.085 µg/g dry tissue and the “K1 MAO-A/K1 MAO-B” value (MAO-B [2]) was 1066.6.
